Measurements from ChEMBL document CHEMBL4507268 (2021).

Columns and labels:
[1] = molecular target: Mitogen-activated protein kinase 6 (Homo sapiens) (UniProt Q16659); settings: Compound concentration 1000.0 nM
[2] = molecular target: T1, Testis-specific serine/threonine-protein kinase 3 (Homo sapiens) (UniProt Q96PN8); settings: Compound concentration 1000.0 nM
T1 sequence (whole entry): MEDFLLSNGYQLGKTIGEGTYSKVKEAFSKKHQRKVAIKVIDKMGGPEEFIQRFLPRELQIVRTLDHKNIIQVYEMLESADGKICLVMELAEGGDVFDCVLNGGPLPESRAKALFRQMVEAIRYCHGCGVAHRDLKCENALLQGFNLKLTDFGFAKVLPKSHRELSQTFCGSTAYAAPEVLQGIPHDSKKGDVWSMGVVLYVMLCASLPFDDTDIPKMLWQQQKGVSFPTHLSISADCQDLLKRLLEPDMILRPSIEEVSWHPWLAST

[3] = molecular target: Serine/threonine-protein kinase PLK1 (Homo sapiens) (UniProt P53350); settings: Compound concentration 1000.0 nM
[4] = tested on: Tyrosine-protein kinase ABL1 (Homo sapiens), P00519 [F317I]; settings: Compound concentration 1000.0 nM
[5] = molecular target: T2, Serine/threonine-protein kinase Sgk3 (Homo sapiens) (UniProt Q96BR1); settings: Compound concentration 1000.0 nM
T2 sequence (whole entry): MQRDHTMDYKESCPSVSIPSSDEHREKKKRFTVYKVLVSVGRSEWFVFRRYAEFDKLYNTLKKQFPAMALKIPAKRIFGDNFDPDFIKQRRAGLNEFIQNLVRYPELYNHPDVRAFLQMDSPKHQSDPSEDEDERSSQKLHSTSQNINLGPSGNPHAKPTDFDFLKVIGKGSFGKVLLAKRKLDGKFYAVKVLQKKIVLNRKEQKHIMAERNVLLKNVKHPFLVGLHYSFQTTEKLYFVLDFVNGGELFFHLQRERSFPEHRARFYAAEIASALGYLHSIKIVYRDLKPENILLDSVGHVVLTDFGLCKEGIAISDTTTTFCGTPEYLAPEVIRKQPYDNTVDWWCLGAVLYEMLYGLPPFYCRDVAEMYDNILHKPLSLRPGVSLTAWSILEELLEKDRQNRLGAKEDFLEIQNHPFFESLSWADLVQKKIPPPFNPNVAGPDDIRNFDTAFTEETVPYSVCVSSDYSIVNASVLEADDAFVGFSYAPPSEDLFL

[6] = molecular target: 5'-AMP-activated protein kinase catalytic subunit alpha-1 (Homo sapiens) (UniProt Q13131); settings: Compound concentration 1000.0 nM
[7] = molecular target: Ephrin type-A receptor 7 (Homo sapiens) (UniProt Q15375); settings: Compound concentration 1000.0 nM
[8] = molecular target: Ribosomal protein S6 kinase alpha-5 (Homo sapiens) (UniProt O75582); settings: Compound concentration 1000.0 nM
[9] = tested on: Receptor-type tyrosine-protein kinase FLT3 (Homo sapiens), P36888 [D835H]; settings: Compound concentration 1000.0 nM
[10] = tested on: Phosphatidylinositol 4,5-bisphosphate 3-kinase catalytic subunit alpha isoform (Homo sapiens), P42336 [E545K]; settings: Compound concentration 1000.0 nM
[11] = molecular target: Hormonally up-regulated neu tumor-associated kinase (Homo sapiens) (UniProt P57058); settings: Compound concentration 1000.0 nM
[12] = molecular target: ALK tyrosine kinase receptor (Homo sapiens) (UniProt Q9UM73); settings: Compound concentration 1000.0 nM
[13] = molecular target: Muscarinic acetylcholine receptor M1 (Homo sapiens) (UniProt P11229); settings: Compound concentration 10.0 uM
[14] = tested on: Mast/stem cell growth factor receptor Kit (Homo sapiens), P10721 [D816V]; settings: Compound concentration 1000.0 nM
[15] = molecular target: Serine/threonine-protein kinase PAK 1 (Homo sapiens) (UniProt Q13153); settings: Compound concentration 1000.0 nM
[16] = molecular target: T3, Serine/threonine-protein kinase D3 (Homo sapiens) (UniProt O94806); settings: Compound concentration 1000.0 nM
T3 sequence (whole entry): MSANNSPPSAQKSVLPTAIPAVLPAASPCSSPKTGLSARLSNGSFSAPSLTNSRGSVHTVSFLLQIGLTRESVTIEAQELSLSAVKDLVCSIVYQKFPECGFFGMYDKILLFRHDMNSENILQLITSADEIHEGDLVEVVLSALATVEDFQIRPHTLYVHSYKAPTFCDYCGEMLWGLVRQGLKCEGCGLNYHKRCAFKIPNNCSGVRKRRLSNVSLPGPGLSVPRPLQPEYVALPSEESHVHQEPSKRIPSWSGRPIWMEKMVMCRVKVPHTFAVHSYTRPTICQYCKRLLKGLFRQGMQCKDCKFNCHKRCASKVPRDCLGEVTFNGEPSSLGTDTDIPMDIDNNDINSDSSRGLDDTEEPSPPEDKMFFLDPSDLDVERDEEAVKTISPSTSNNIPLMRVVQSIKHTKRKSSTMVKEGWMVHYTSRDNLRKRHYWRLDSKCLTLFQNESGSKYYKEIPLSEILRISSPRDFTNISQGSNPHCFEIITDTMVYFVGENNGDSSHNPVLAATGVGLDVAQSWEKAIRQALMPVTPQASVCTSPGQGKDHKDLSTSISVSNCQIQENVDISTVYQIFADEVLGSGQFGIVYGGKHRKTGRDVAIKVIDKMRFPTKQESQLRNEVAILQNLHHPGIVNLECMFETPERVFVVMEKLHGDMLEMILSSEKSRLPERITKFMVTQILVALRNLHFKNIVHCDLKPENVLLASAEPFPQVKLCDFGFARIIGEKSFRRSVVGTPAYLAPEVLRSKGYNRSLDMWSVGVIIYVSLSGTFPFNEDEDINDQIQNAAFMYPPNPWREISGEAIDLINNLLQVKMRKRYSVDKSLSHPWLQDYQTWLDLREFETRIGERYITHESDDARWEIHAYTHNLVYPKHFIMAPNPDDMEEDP

[17] = molecular target: T4, Mitogen-activated protein kinase 12 (Homo sapiens) (UniProt P53778); settings: Compound concentration 1000.0 nM
T4 sequence (whole entry): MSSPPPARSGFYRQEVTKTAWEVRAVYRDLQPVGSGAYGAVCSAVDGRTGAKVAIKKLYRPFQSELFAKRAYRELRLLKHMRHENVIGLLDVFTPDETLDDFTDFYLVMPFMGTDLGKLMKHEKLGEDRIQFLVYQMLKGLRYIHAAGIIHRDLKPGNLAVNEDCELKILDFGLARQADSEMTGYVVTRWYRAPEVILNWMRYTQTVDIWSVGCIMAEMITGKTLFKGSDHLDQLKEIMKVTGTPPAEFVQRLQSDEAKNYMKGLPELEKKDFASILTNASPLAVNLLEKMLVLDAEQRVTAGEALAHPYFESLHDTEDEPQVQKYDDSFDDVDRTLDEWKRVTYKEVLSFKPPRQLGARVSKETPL

Tyrosine-protein kinase ABL1 (Homo sapiens), P00519 [F317I], sequence (P00519 whole entry F317I): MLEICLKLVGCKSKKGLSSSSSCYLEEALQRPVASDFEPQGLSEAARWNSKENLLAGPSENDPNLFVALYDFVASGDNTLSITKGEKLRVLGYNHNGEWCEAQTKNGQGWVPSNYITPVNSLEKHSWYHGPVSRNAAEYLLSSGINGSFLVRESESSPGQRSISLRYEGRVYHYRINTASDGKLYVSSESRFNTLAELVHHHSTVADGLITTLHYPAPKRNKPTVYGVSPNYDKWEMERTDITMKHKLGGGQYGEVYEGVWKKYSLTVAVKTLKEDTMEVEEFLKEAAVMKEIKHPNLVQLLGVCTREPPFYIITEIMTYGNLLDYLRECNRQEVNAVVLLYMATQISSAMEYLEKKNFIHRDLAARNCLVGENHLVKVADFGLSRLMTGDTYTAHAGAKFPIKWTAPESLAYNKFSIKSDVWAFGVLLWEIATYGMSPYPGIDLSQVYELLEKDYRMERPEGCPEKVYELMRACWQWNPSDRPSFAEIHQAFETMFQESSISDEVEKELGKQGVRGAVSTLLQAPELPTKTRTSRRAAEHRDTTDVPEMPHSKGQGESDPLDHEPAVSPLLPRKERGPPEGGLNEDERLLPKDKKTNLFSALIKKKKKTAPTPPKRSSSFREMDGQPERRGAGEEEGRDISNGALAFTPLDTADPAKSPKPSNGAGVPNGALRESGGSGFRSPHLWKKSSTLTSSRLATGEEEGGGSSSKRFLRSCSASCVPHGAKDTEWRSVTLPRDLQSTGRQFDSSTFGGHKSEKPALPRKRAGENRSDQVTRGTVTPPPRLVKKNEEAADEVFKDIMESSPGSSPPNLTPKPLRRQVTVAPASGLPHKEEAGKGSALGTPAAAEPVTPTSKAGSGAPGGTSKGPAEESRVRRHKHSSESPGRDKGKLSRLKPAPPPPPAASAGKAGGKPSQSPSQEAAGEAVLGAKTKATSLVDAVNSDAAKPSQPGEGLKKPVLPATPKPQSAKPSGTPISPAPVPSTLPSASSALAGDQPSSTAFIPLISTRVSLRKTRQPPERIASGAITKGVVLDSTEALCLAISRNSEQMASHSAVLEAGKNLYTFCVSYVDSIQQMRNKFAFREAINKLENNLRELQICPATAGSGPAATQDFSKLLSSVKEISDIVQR
Mitogen-activated protein kinase 6 (Homo sapiens), sequence (Q16659 whole entry): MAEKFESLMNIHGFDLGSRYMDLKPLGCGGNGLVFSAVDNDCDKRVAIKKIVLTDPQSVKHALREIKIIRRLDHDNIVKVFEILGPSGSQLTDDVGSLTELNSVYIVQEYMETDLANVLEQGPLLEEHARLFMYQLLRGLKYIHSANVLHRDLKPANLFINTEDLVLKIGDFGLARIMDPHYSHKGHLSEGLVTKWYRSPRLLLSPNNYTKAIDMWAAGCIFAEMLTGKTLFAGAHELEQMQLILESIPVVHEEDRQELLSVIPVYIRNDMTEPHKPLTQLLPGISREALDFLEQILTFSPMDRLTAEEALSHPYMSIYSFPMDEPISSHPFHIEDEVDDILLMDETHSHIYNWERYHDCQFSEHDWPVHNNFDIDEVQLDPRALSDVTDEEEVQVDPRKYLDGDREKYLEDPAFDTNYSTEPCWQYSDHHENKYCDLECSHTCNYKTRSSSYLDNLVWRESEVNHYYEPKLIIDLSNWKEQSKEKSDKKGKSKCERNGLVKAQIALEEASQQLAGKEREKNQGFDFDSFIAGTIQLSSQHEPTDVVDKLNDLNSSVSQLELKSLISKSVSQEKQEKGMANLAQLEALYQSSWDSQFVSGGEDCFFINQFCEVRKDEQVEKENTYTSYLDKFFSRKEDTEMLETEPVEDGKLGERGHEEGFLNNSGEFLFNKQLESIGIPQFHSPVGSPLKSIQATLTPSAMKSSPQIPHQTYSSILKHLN
Mast/stem cell growth factor receptor Kit (Homo sapiens), P10721 [D816V], sequence (P10721 whole entry D816V): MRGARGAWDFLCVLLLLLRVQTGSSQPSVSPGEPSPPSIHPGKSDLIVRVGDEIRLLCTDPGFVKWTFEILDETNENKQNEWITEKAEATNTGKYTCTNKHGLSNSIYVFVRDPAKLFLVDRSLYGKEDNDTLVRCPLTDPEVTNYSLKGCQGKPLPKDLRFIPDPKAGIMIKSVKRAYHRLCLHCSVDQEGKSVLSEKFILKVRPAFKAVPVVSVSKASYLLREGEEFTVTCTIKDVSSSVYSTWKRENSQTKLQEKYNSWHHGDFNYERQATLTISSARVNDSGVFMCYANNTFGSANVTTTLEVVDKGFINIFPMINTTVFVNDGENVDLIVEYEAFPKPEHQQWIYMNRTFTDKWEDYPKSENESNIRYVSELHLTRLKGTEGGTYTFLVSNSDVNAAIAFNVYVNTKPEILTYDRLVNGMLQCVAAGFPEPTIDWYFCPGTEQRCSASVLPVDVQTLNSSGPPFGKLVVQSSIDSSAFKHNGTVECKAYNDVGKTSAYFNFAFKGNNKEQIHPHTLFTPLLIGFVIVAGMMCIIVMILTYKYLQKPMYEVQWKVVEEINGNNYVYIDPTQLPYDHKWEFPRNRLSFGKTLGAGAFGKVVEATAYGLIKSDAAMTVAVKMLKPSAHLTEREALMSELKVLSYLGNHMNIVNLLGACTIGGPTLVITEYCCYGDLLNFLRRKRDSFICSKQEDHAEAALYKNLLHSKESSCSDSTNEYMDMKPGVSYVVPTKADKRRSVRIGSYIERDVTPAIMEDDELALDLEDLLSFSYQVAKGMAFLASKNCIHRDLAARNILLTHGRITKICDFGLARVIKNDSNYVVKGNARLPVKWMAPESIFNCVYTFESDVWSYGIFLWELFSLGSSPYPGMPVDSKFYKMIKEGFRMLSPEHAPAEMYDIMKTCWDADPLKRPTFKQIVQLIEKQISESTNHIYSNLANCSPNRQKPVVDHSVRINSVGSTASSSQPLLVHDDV
Ribosomal protein S6 kinase alpha-5 (Homo sapiens), sequence (O75582 whole entry, looked up): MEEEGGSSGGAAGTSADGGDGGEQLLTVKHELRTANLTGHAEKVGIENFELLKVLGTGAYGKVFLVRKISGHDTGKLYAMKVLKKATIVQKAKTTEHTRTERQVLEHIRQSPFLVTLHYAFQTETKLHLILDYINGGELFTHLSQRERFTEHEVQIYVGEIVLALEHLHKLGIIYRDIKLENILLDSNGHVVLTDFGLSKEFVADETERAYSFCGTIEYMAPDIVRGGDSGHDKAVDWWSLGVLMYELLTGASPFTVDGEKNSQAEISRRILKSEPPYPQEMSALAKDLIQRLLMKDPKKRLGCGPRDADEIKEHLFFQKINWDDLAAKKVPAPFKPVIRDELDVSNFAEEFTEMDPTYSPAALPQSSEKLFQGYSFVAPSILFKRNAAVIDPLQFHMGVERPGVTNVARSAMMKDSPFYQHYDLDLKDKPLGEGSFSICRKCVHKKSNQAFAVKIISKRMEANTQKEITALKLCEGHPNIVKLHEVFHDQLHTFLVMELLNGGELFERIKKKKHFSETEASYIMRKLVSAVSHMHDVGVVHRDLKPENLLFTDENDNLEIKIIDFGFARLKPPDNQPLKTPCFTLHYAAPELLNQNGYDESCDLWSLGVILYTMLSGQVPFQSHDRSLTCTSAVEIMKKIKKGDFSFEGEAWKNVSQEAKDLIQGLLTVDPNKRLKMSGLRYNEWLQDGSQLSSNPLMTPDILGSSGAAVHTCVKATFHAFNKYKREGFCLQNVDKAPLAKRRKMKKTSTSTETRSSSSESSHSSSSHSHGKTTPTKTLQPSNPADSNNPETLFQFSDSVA
Phosphatidylinositol 4,5-bisphosphate 3-kinase catalytic subunit alpha isoform (Homo sapiens), P42336 [E545K], sequence (P42336 whole entry E545K, canonical isoform): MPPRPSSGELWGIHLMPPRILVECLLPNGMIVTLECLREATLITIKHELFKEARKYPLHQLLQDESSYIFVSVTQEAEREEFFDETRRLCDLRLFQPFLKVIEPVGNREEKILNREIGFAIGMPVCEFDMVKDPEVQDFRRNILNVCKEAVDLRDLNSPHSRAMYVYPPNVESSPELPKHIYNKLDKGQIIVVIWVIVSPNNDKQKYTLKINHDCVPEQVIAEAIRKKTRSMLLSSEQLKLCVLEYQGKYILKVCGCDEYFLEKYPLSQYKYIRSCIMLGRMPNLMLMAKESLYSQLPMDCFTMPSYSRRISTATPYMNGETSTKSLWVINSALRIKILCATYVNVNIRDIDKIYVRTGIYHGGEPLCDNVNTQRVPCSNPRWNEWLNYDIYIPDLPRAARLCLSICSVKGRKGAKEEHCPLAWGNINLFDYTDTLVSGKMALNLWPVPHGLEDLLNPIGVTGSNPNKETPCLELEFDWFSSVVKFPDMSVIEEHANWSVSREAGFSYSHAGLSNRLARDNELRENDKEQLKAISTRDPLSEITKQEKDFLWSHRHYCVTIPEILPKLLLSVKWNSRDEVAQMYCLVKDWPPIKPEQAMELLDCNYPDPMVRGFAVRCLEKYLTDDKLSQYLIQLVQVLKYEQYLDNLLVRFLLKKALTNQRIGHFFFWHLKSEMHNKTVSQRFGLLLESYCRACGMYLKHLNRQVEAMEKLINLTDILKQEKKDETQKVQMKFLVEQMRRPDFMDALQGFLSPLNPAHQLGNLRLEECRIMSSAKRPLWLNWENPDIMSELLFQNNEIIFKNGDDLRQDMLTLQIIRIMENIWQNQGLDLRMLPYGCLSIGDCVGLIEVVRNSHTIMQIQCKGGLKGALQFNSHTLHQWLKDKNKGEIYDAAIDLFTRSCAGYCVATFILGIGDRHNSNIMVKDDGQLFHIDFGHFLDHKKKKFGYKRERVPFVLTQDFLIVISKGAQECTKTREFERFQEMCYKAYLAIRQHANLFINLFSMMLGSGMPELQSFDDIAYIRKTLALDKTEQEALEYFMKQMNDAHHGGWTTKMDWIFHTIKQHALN

Cc1nc(C2CCN(C(=O)c3ccc(OC(F)(F)F)cc3N)CC2)c2ncc(N3CCN(C)CC3)cc2n1 [BAY-693]
inactive: residual activity [1] 100% | residual activity [2] 100% | residual activity [3] 79% | residual activity [4] 100% | residual activity [5] 93% | residual activity [6] 98% | residual activity [7] 92% | residual activity [8] 100% | residual activity [9] 69% | residual activity [10] 85% | residual activity [11] 100% | residual activity [12] 89% | inhibition [13] 2.76% | residual activity [14] 100% | residual activity [15] 100% | residual activity [16] 100% | residual activity [17] 100%

CN1CCN(c2cnc3c(C4CCN(C(=O)c5ccc(OC(F)(F)F)cc5N)CC4)ncnc3c2)CC1 [BAY-885]
inactive: residual activity [1] 100% | residual activity [2] 68% | residual activity [3] 93% | residual activity [4] 100% | residual activity [5] 100% | residual activity [6] 87% | residual activity [7] 100% | residual activity [8] 100% | residual activity [9] 75% | residual activity [10] 100% | residual activity [11] 95% | residual activity [12] 99% | inhibition [13] 3.17% | residual activity [14] 100% | residual activity [15] 93% | residual activity [16] 100% | residual activity [17] 83%
